Experimental findings from patent US9476017B2, “Compositions and methods for cleaning, disinfecting, and sanitizing that are effluent neutral” (Diversey, Inc, priority 2012, dated 2016) are described below.

Structures are written as SMILES. Like-named read-outs stand apart in the source and are kept apart here.

For one series, the system named is Saccharomyces cerevisiae. As to the kind of experiment: Yeast growth test (Example 6). It counts as cell-based. To be noted: supplement at concentrations above 10 ppm; 30° C.; compared to control without supplements. Here is the method: These experiments were used to investigate whether potential residues of cleaning formulations described herein have any impact on the growth or metabolism of a fermentative yeast cell. Saccharomyces cerevisiae was selected as a typical member of fermenting yeasts. Malt extract agar tubes with an angular surface were used to grow starter cultures. Two globules that were covered with Saccaromyces cerevisiae (from a freeze culture collection DSM 1333) were streaked onto an agar surface and incubated at 30° C. for 3 days. Yeast colonies were grown, transferred to liquid growth media and incubated for 15-20 hours at 30° C. A second transfer was conducted into fresh liquid medium. The grown medium was transferred into closed, sterile tubes and centrifuged for 20 minutes at 8000 G. The liquid was decanted and the pellets collected in 10 mL of sterile Ringer solution. A Thoma Hemocytometer was prepared. Cells of 4 squares across were counted. Counted numbers from 4 squares were averaged and cell concentrations were calculated. The concentration of cells in the original mixture=number of cells counted*10^6=cells/mL. Dilutions were made to reach final cell concentration of 1×10^6/mL in culture medium. […] Start extinction was measured at 578 nm with help of a spectrophotometer. […] Every 1 to 2 hours samples were taken and extinctions were measured. […] The difference ∂ of extinction to start was calculated. […]

How the values of series [1] were obtained:
Formulation B was combined with three sanitizing additives hydrogen peroxide (i.e., “peroxide”), peracetic acid (PAA) and chlorine dioxide. Testing was conducted at 80° C. to simulate CIP tank conditions. Ferment soil was added to the tests to further simulate real conditions.

In another series the test system is Lactobacillus brevis. The experiment in a line: Efficiency against Lactobacillus brevis, EN 1276. Type of series: cell-based. The method, then:
(§1) Testing was done according to test protocols EN 1276 and EN 1650. Formulation B and Formulation D (a peracetic acid-based formulation) were tested separately and in combination. Formulation B was also tested in combination with hydrogen peroxide. Tests were run at 20°, 40° C. and 60° C. in the presence of 1% ferment soil at contact times of 10, 20 and 30 minutes. Kill rates are expressed as log reductions.

The next series deals with fermentative wild yeasts. As to the kind of experiment: Efficiency against fermentative wild yeasts. To be noted: all temperatures, 20 minutes or longer. Type of series: cell-based. The method, then:
as §1
At 20° C. and 40° C., 0.28% peroxide […] was ineffective on Lactobacilli. The higher kill rate at 60° C. is mainly due to temperature.

Consider `[Na+].[OH-]` [Caustic Soda, sodium hydroxide], for which the “S. cerevisiae cell growth” value in the series on Saccharomyces cerevisiae was “significantly decreased or even inhibited”.

In the case of `[O][Cl+][O-]` [Chlorine dioxide, chlorine dioxide], the stability entry in series [1] (10 ppm, 80° C., ferment soil) is given as “very unstable”.

On to `CC(=O)OO` [Peracetic acid, peracetic acid], for which, in series [1] (in Formulation B and ferment soil, versus high alkaline solutions), the stability result was “better stability”. The half life in series [1] (in the presence of Formulation B, 80° C., ferment soil) was over 30 min. Besides, the “effectiveness” value in the series on Lactobacillus brevis (0.3% (450 ppm), all temperatures, 20 minutes or longer) is recorded as “very effective”; in the series on fermentative wild yeasts (0.15% (225 ppm PAA)) it was “very effective”; in the series with fermentative wild yeasts (0.3% (450 ppm)), “very effective”.

As to `OO` [hydrogen peroxide], the “effectiveness” value with Lactobacillus brevis (0.28% (1000 ppm), at 20° C. and 40° C.) is on record as “ineffective”; with Lactobacillus brevis (1.4% (5000 ppm), at 40° C. and 20 minute contact times), “became effective”.
